From patent publication US20060264419A1 (priority 2003, published 2006)

target: 5-HT2A receptors (Rattus norvegicus, UniProt P14842); assay: in-vitro affinity to 5-HT2A receptors, displacement of [3H]ketanserine (Example A1); format: binding; conditions: read-out: HT2A IC50
Source text: The 5-HT2A receptors are exposed both to [^3H]ketanserine (a substance which is known for its affinity to the receptor) and also to the test compound. The decrease in the affinity of [^3H]ketanserine to the receptor is an indication of the affinity of the test substance to the 5-HT2A receptor.

Chain of 5-HT2A receptors (P14842 whole entry): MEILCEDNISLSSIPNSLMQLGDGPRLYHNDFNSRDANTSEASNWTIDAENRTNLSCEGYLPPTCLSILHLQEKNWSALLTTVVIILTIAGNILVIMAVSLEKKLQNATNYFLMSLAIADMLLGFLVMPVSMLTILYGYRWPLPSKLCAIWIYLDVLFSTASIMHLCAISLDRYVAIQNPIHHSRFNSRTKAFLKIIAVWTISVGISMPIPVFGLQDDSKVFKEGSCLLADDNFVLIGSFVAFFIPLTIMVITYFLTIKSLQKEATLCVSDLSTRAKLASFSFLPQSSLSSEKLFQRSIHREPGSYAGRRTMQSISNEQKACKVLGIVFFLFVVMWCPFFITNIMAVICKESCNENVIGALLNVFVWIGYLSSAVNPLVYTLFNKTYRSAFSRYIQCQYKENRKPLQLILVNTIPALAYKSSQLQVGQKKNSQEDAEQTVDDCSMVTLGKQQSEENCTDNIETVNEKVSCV

SMILES | IC50
Fc1ccccc1-c1c(CNC2CCNCC2)cnn1-c1ccc(-c2ccccc2)cc1 [Example 1058, [1-Biphenyl-4-yl-5-(2-fluorophenyl)-1H-pyrazol-4-ylmethyl]piperidin-4-ylamine] | 470 nM
O=C(c1cnn(-c2ccc(-c3ccccc3)cc2)c1-c1ccccc1F)N1CCOCC1 [Example 1043, 1-[1-Biphenyl-4-yl-5-(2-fluorophenyl)-1H-pyrazol-4-yl]-1-morpholin-4-ylmethanone] | 360 nM
NC(=O)CN1CCN(Cc2cnn(-c3ccc(-c4ccccc4)cc3)c2-c2ccccc2F)CC1 [Example 1042, 2-{4-[1-Biphenyl-4-yl-5-(2-fluoro-phenyl)-1H-pyrazol-4-ylmethyl]piperazin-1-yl}acetamide] | 360 nM
OCc1cnn(-c2ccc(-c3ccc(F)cc3)cc2)c1-c1cccc(Cl)c1 [Example 992, [5-(3-Chlorophenyl)-1-(4′-fluoro-biphenyl-4-yl)-1H-pyrazol-4-yl]methanol] | 140 nM
N#CCNCc1cnn(-c2ccc(-c3ccccc3)cc2)c1-c1ccccc1F [Example 1034, {[1-Biphenyl-4-yl-5-(2-fluorophenyl)-1H-pyrazol-4-ylmethyl]amino}acetonitrile] | 280 nM
CC1CCN(Cc2cnn(-c3ccc(-c4ccccc4)cc3)c2-c2ccccc2F)CC1 [Example 986, 1-[1-Biphenyl-4-yl-5-(2-fluorophenyl)-1H-pyrazol-4-ylmethyl]-4-methylpiperidine] | 130 nM
CCN1CCN(Cc2cnn(-c3ccc(-c4ccc(F)cc4)cc3)c2-c2ccc(OC)cc2)CC1 [Example 1011, 1-Ethyl-4-[1-(4′-fluorobiphenyl-4-yl)-5-(4-methoxyphenyl)-1H-pyrazol-4-ylmethyl]-piperazine] | 200 nM
OCCc1cnn(-c2ccc(-c3ccccc3)cc2)c1-c1ccccc1F [Example 1059, 2-[1-Biphenyl-4-yl-5-(2-fluoro-phenyl)-1H-pyrazol-4-yl]ethanol] | 470 nM
O=C(CN1CCN(Cc2cnn(-c3ccc(-c4ccccc4)cc3)c2-c2ccccc2F)CC1)N1CCCC1 [Example 1038, 2-{4-[1-Biphenyl-4-yl-5-(2-fluoro-phenyl)-1H-pyrazol-4-ylmethyl]piperazin-1-yl}-1-pyrrolidin-1-ylethanone] | 311 nM
O=C(CNCc1cnn(-c2ccc(-c3ccccc3)cc2)c1-c1ccccc1F)Nc1ccc([N+](=O)[O-])cc1 [Example 980, 2-{[1-Biphenyl-4-yl-5-(2-fluorophenyl)-1H-pyrazol-4-ylmethyl]amino}-N-(4-nitrophenyl)-acetamide] | 100 nM
CCN(Cc1ccccc1)Cc1cnn(-c2ccc(-c3ccccc3)cc2)c1-c1ccccc1F [Example 1039, Benzyl-[1-biphenyl-4-yl-5-(2-fluoro-phenyl)-1H-pyrazol-4-ylmethyl]ethylamine] | 320 nM
CN1CCN(Cc2cnn(-c3ccc(-c4cc(Cl)cc(Cl)c4)cc3)c2-c2ccccc2F)CC1 [Example 973, 1-[1-(3′,5′-Dichlorobiphenyl-4-yl)-5-(2-fluoro-phenyl)-1H-pyrazol-4-ylmethyl]-4-methyl-piperazine] | 86 nM
CCNC(=O)CN1CCN(Cc2cnn(-c3ccc(-c4ccccc4)cc3)c2-c2ccccc2F)CC1 [Example 1018, 2-{4-[1-Biphenyl-4-yl-5-(2-fluoro-phenyl)-1H-pyrazol-4-ylmethyl]piperazin-1-yl}-N-ethyl-acetamide] | 230 nM
Cc1ccccc1-c1c(CN2CCN(C)CC2)cnn1-c1ccc(-c2ccc(F)cc2)cc1 [Example 966, 1-[1-(4′-Fluorobiphenyl-4-yl)-5-o-tolyl-1H-pyrazol-4-ylmethyl]-4-methyl-piperazine] | 72 nM
OC1CCN(Cc2cnn(-c3ccc(-c4ccccc4)cc3)c2-c2ccccc2F)CC1 [Example 1053, 1-[1-Biphenyl-4-yl-5-(2-fluorophenyl)-1H-pyrazol-4-ylmethyl]piperidin-4-ol] | 430 nM
Fc1ccccc1-c1c(CNCCCn2ccnc2)cnn1-c1ccc(-c2ccccc2)cc1 [Example 1001, [1-Biphenyl-4-yl-5-(2-fluorophenyl)-1H-pyrazol-4-ylmethyl]-(3-imidazol-1-ylpropyl)amine] | 170 nM
CCOC(=O)N1CCC(N(C)Cc2cnn(-c3ccc(-c4ccccc4)cc3)c2-c2ccccc2F)CC1 [Example 999, Ethyl 4-{[1-biphenyl-4-yl-5-(2-fluorophenyl)-1H-pyrazol-4-ylmethyl]methylamino}piperidine-1-carboxylate] | 170 nM
Fc1ccccc1-c1c(CN2CC=CCC2)cnn1-c1ccc(-c2ccccc2)cc1 [Example 998, 1-[1-Biphenyl-4-yl-5-(2-fluorophenyl)-1H-pyrazol-4-ylmethyl]-1,2,3,6-tetrahydro-pyridine] | 170 nM

same assay, conditions: target not given; description names affinity to 5-HT2A receptors; read-out: IC50

SMILES | IC50
Fc1ccccc1-c1c(CN2CCCCC2)cnn1-c1ccc(-c2ccccc2)cc1 [(23), 1-[1-Biphenyl-4-yl-5-(2-fluorophenyl)-1H-pyrazol-4-ylmethyl]-piperidine] | 30 nM
Fc1ccc(-c2ccc(-n3ncc(CNc4ccon4)c3-c3ccccc3F)cn2)cc1 [(174), {5-(2-Fluorophenyl)-1-[6-(4-fluorophenyl)pyridin-3-yl]-1H-pyrazol-4-ylmethyl}isoxazol-3-ylamine] | 320 nM
CN1CCN(Cc2cnn(-c3ccc(-c4ccccc4)nc3)c2-c2cccnc2)CC1 [(198), 1-Methyl-4-[1-(6-phenylpyridin-3-yl)-5-pyridin-3-yl-1H-pyrazol-4-ylmethyl]piperazine] | 140 nM
CC(=O)NC1CCN(Cc2cnn(-c3ccc(-c4ccccc4)cc3)c2-c2ccccc2F)C1 (stereo not shown) [(50), N-{1-[1-Biphenyl-4-yl-5-(2-fluorophenyl)-1H-pyrazol-4-ylmethyl]pyrrolidin-3-yl}acetamide] | 29 nM
Fc1ccc(F)c(-c2ccc(-n3ncc(CNCC4CCCO4)c3-c3ccccc3F)cc2)c1 (stereo not shown) [(122), [1-(2′,5′-Difluorobiphenyl-4-yl)-5-(2-fluorophenyl)-1H-pyrazol-4-ylmethyl](tetrahydrofuran-2-ylmethyl)amine] | 370 nM
CN1CCN(Cc2cnn(-c3ccc(-c4ccncc4)cc3)c2-c2ccccc2F)CC1 [(121), 1-[5-(2-Fluorophenyl)-1-(4-pyridin-4-ylphenyl)-1H-pyrazol-4-ylmethyl]-4-methylpiperazine] | 77 nM
CN1CCN(Cc2cnn(-c3ccc(-c4ccccc4)cc3)c2C(F)(F)F)CC1 [(67)] | 260 nM
CN1CCN(Cc2cnn(-c3ccc(-c4ccc(F)cc4)cc3)c2-c2ccc(F)cc2)CC1 [(100), 1-[1-(4′-Fluorobiphenyl-4-yl)-5-(4-fluorophenyl)-1H-pyrazol-4-ylmethyl]-4-methylpiperazine] | 25 nM
CC(C)(C)OC(=O)CNCc1cnn(-c2ccc(-c3ccccc3)cc2)c1-c1cccnc1 [(179), tert-Butyl [(1-biphenyl-4-yl-5-pyridin-3-yl-1H-pyrazol-4-ylmethyl)amino]acetate] | 1000 nM
O=C1CCCN1CCCNCc1cnn(-c2ccc(-c3ccccc3)cc2)c1-c1ccccc1F [(151), 1-(3-{[1-Biphenyl-4-yl-5-(2-fluorophenyl)-1H-pyrazol-4-ylmethyl]amino}propyl)pyrrolidin-2-one] | 64 nM
CCN(Cc1ccccc1)Cc1cnn(-c2ccc(-c3ccccc3)cc2)c1-c1ccccc1F [(32), Benzyl-[1-biphenyl-4-yl-5-(2-fluorophenyl)-1H-pyrazol-4-ylmethyl]ethylamine] | 320 nM
Fc1ccccc1-c1c(CNCCCn2ccnc2)cnn1-c1ccc(-c2ccccc2)cc1 [(152), [1-Biphenyl-4-yl-5-(2-fluorophenyl)-1H-pyrazol-4-ylmethyl]-(3-imidazol-1-ylpropyl)amine] | 130 nM
Fc1ccccc1-c1c(CNC2CCN(Cc3ccccc3)C2)cnn1-c1ccc(-c2ccccc2)cc1 (stereo not shown) [(161), (1-Benzylpyrrolidin-3-yl)-[1-biphenyl-4-yl-5-(2-fluorophenyl)-1H-pyrazol-4-ylmethyl]amine] | 310 nM
Nc1ncc(NCc2cnn(-c3ccc(-c4ccc(F)cc4)nc3)c2-c2ccccc2F)cn1 [(197)] | 1300 nM
OC1CCN(Cc2cnn(-c3ccc(-c4ccccc4)cc3)c2-c2ccccc2F)C1 (stereo not shown) [(53), 1-[1-Biphenyl-4-yl-5-(2-fluorophenyl)-1H-pyrazol-4-ylmethyl]-pyrrolidin-3-ol] | 14 nM
O=c1ccccn1Cc1cnn(-c2ccc(-c3ccccc3)cc2)c1-c1ccccc1F [(191), 1-[1-Biphenyl-4-yl-5-(2-fluorophenyl)-1H-pyrazol-4-ylmethyl]-1H-pyridin-2-one] | 200 nM
Cn1ccnc1CNCc1cnn(-c2ccc(-c3ccccc3)cc2)c1-c1ccccc1 [(169), (1-Biphenyl-4-yl-5-phenyl-1H-pyrazol-4-ylmethyl)-(1-methyl-1H-imidazol-2-ylmethyl)amine] | 39 nM
O=C1NOCC1NCc1cnn(-c2ccc(-c3ccccc3)cc2)c1-c1ccccc1F (stereo not shown) [(131), 4-{[1-Biphenyl-4-yl-5-(2-fluorophenyl)-1H-pyrazol-4-ylmethyl]-amino}isoxazolidin-3-one] | 6000 nM
CN1CCN(Cc2cnn(-c3ccc(-c4cc(F)ccc4F)cc3)c2-c2ccccc2F)CC1 [(65), 1-[1-(2′,5′-Difluorobiphenyl-4-yl)-5-(2-fluorophenyl)-1H-pyrazol-4-ylmethyl]-4-methylpiperazine] | 55 nM
Cc1cc(CNCc2cnn(-c3ccc(-c4ccccc4)cc3)c2-c2ccccc2)no1 [(181), (1-Biphenyl-4-yl-5-phenyl-1H-pyrazol-4-ylmethyl)-(5-methylisoxazol-3-ylmethyl)amine] | 240 nM
CC(C)(C)OC(=O)N1CCC(NCc2cnn(-c3ccc(-c4ccccc4)cc3)c2-c2ccccc2F)C1 (stereo not shown) [(176), tert-Butyl 3-{[1-biphenyl-4-yl-5-(2-fluorophenyl)-1H-pyrazol-4-ylmethyl]amino}pyrrolidine-1-carboxylate] | 460 nM
Fc1ccccc1-c1c(CN2CCN3CCc4ccccc4C3C2)cnn1-c1ccc(-c2ccccc2)cc1 (stereo not shown) [(27), 2-[1-Biphenyl-4-yl-5-(2-fluorophenyl)-1H-pyrazol-4-ylmethyl]-1,3,4,6,7,11b-hexahydro-2H-pyrazino[2,1-a]-isoquinoline] | 280 nM
